In brackets after ≈: the same amount, converted by molar mass.
What was measured:
Candida tropicalis = test: Inhibition of chitin synthase extracted from Candida tropicalis ATCC 750 using UDP-GlcNAc as substrate assessed as inhibition rate at 300 ug/ml by TMB based microplate analyzer relative to control; conditions: dose 300.0 µg/ml
[1] = Inhibition of chitin synthase extracted from Candida tropicalis ATCC 750 using UDP-GlcNAc as substrate assessed as inhibition rate by TMB based microplate analyzer relative to control
Candida albicans [2] = test: Antifungal activity against Candida albicans ATCC 76615 assessed as inhibition of growth incubated for 24 hrs by two-fold serial dilution method; type: functional
Aspergillus flavus [3] = test: Antifungal activity against Aspergillus flavus ATCC 16870 assessed as inhibition of growth incubated for 24 hrs by two-fold serial dilution method; type: functional
Aspergillus fumigatus [4] = test: Antifungal activity against Aspergillus fumigatus GIMCC 3.19 assessed as inhibition of growth incubated for 24 hrs by two-fold serial dilution method; type: functional
Cryptococcus neoformans [5] = test: Antifungal activity against Cryptococcus neoformans ATCC 32719 assessed as inhibition of growth incubated for 24 hrs by two-fold serial dilution method; type: functional
Candida albicans [6] = test: Antifungal activity against drug-resistant Candida albicans ATCC 76615 assessed as inhibition of cell wall synthesis in presence of sorbitol incubated for 24 hrs; type: functional
Aspergillus fumigatus [7] = test: Antifungal activity against drug-resistant Aspergillus fumigatus GIMCC 3.19 assessed as inhibition of cell wall synthesis in presence of sorbitol incubated for 24 hrs; type: functional
Cryptococcus neoformans [8] = test: Antifungal activity against drug-resistant Cryptococcus neoformans ATCC 32719 assessed as inhibition of cell wall synthesis in presence of sorbitol incubated for 24 hrs; type: functional
Candida albicans [9] = test: Antifungal activity against fluconazole-resistant Candida albicans ATCC 76615 assessed as inhibition of fungal growth incubated for 24 to 72 hrs; type: functional; conditions: time 24-72 hrs
Aspergillus flavus [10] = test: Antifungal activity against fluconazole-resistant Aspergillus flavus ATCC 16870 assessed as inhibition of fungal growth incubated for 24 to 72 hrs; type: functional; conditions: time 24-72 hrs
Aspergillus fumigatus [11] = test: Antifungal activity against fluconazole-resistant Aspergillus fumigatus GIMCC 3.19 assessed as inhibition of fungal growth incubated for 24 to 72 hrs; type: functional; conditions: time 24-72 hrs
Cryptococcus neoformans [12] = test: Antifungal activity against fluconazole-resistant Cryptococcus neoformans ATCC 32719 assessed as inhibition of fungal growth incubated for 24 to 72 hrs; type: functional; conditions: time 24-72 hrs
Candida albicans [13] = test: Antifungal activity against micafungin-resistant Candida albicans ATCC 76615 assessed as inhibition of fungal growth incubated for 24 to 72 hrs; type: functional; conditions: time 24-72 hrs
Candida albicans [14] = test: Antifungal activity against Candida albicans ATCC 76615 incubated for 24 hrs by half broth dilution based checkerboard method; type: functional
Aspergillus flavus [15] = test: Antifungal activity against Aspergillus flavus ATCC 16870 incubated for 24 hrs by half broth dilution based checkerboard method; type: functional
Aspergillus fumigatus [16] = test: Antifungal activity against Aspergillus fumigatus GIMCC 3.19 incubated for 24 hrs by half broth dilution based checkerboard method; type: functional
Cryptococcus neoformans [17] = test: Antifungal activity against Cryptococcus neoformans ATCC 32719 incubated for 24 hrs by half broth dilution based checkerboard method; type: functional
Candida albicans [18] = test: Antifungal activity against Candida albicans ATCC 76615 assessed as fluconazole MIC incubated for 24 hrs in presence of fluconazole by half broth dilution based checkerboard method; type: functional
Aspergillus flavus [19] = test: Antifungal activity against Aspergillus flavus ATCC 16870 assessed as fluconazole MIC incubated for 24 hrs in presence of fluconazole by half broth dilution based checkerboard method; type: functional
Aspergillus fumigatus [20] = test: Antifungal activity against Aspergillus fumigatus GIMCC 3.19 assessed as fluconazole MIC incubated for 24 hrs in presence of fluconazole by half broth dilution based checkerboard method; type: functional
Cryptococcus neoformans [21] = test: Antifungal activity against Cryptococcus neoformans ATCC 32719 assessed as fluconazole MIC incubated for 24 hrs in presence of fluconazole by half broth dilution based checkerboard method; type: functional
Aspergillus fumigatus [22] = test: Synergistic antifungal activity against Aspergillus fumigatus GIMCC 3.19 assessed as fractional inhibitory concentration index in presence of fluconazole incubated for 24 hrs by half broth dilution based checkerboard method; type: functional
Candida albicans [23] = test: Synergistic antifungal activity against Candida albicans ATCC 76615 assessed as fractional inhibitory concentration index in presence of fluconazole incubated for 24 hrs by half broth dilution based checkerboard method; type: functional
Aspergillus flavus [24] = test: Synergistic antifungal activity against Aspergillus flavus ATCC 16870 assessed as fractional inhibitory concentration index in presence of fluconazole incubated for 24 hrs by half broth dilution based checkerboard method; type: functional
Cryptococcus neoformans [25] = test: Synergistic antifungal activity against Cryptococcus neoformans ATCC 32719 assessed as fractional inhibitory concentration index in presence of fluconazole incubated for 24 hrs by half broth dilution based checkerboard method; type: functional
Candida albicans [26] = test: Antifungal activity against Candida albicans ATCC 76615 assessed as Polyoxin B MIC incubated for 24 hrs in presence of fluconazole by half broth dilution based checkerboard method; type: functional
Aspergillus flavus [27] = test: Antifungal activity against Aspergillus flavus ATCC 16870 assessed as Polyoxin B MIC incubated for 24 hrs in presence of fluconazole by half broth dilution based checkerboard method; type: functional
Aspergillus fumigatus [28] = test: Antifungal activity against Aspergillus fumigatus GIMCC 3.19 assessed as Polyoxin B MIC incubated for 24 hrs in presence of fluconazole by half broth dilution based checkerboard method; type: functional
Cryptococcus neoformans [29] = test: Antifungal activity against Cryptococcus neoformans ATCC 32719 assessed as Polyoxin B MIC incubated for 24 hrs in presence of fluconazole by half broth dilution based checkerboard method; type: functional
Candida albicans [30] = test: Synergistic antifungal activity against Candida albicans ATCC 76615 assessed as fractional inhibitory concentration index in presence of Polyoxin B incubated for 24 hrs by half broth dilution based checkerboard method; type: functional
Aspergillus flavus [31] = test: Synergistic antifungal activity against Aspergillus flavus ATCC 16870 assessed as fractional inhibitory concentration index in presence of Polyoxin B incubated for 24 hrs by half broth dilution based checkerboard method; type: functional
Aspergillus fumigatus [32] = test: Synergistic antifungal activity against Aspergillus fumigatus GIMCC 3.19 assessed as fractional inhibitory concentration index in presence of Polyoxin B incubated for 24 hrs by half broth dilution based checkerboard method; type: functional
Cryptococcus neoformans [33] = test: Synergistic antifungal activity against Cryptococcus neoformans ATCC 32719 assessed as fractional inhibitory concentration index in presence of Polyoxin B incubated for 24 hrs by half broth dilution based checkerboard method; type: functional
Aspergillus flavus [34] = test: Antifungal activity against drug-resistant Aspergillus flavus ATCC 16870 assessed as inhibition of cell wall synthesis in presence of sorbitol incubated for 24 hrs; type: functional

Row | SMILES | inhibition (Candida tropicalis) [%] | IC50 [1] [µM] | MIC (Candida albicans [2]) [µg/mL] | MIC (Aspergillus flavus [3]) [µg/mL] | MIC (Aspergillus fumigatus [4]) [µg/mL] | MIC (Cryptococcus neoformans [5]) [µg/mL] | MIC (Candida albicans [6]) [µg/mL] | MIC (Aspergillus fumigatus [7]) [µg/mL] | MIC (Cryptococcus neoformans [8]) [µg/mL] | MIC (Candida albicans [9]) [µg/mL] | MIC (Aspergillus flavus [10]) [µg/mL] | MIC (Aspergillus fumigatus [11]) [µg/mL] | MIC (Cryptococcus neoformans [12]) [µg/mL] | MIC (Candida albicans [13]) [µg/mL] | MIC (Candida albicans [14]) [µg/mL] | MIC (Aspergillus flavus [15]) [µg/mL] | MIC (Aspergillus fumigatus [16]) [µg/mL] | MIC (Cryptococcus neoformans [17]) [µg/mL] | MIC (Candida albicans [18]) [µg/mL] | MIC (Aspergillus flavus [19]) [µg/mL] | other results
1 | O=C(/C=C/C(=O)Nc1ccc2c(c1)NC(=O)C1(CCNC1=O)C2)Nc1ccc(Br)cc1 (racemic) | 72.7 | 179 | 16 (≈ 33.1 µM) | 16 (≈ 33.1 µM) | 32 (≈ 66.2 µM) | 16 (≈ 33.1 µM) | 128 | 256 | 256 | 64 (≈ 132 µM) | 64 (≈ 132 µM) | 64 (≈ 132 µM) | 32 (≈ 66.2 µM) | 32 (≈ 66.2 µM) | 4 | 8 | 8 | 4 | 4 | 4 | MIC (Aspergillus fumigatus [20]): 2 µg/mL; MIC (Cryptococcus neoformans [21]): 4 µg/mL; fractional inhibitory concentration index (FICI) (Aspergillus fumigatus [22]): 0.75; fractional inhibitory concentration index (FICI) (Candida albicans [23]): 0.75; fractional inhibitory concentration index (FICI) (Aspergillus flavus [24]): 1.5; fractional inhibitory concentration index (FICI) (Cryptococcus neoformans [25]): 1; MIC (Candida albicans [26]): 8 µg/mL; MIC (Aspergillus flavus [27]): 8 µg/mL; MIC (Aspergillus fumigatus [28]): 16 µg/mL; MIC (Cryptococcus neoformans [29]): 4 µg/mL; fractional inhibitory concentration index (FICI) (Candida albicans [30]): 0.75; fractional inhibitory concentration index (FICI) (Aspergillus flavus [31]): 1.5; fractional inhibitory concentration index (FICI) (Aspergillus fumigatus [32]): 0.75; fractional inhibitory concentration index (FICI) (Cryptococcus neoformans [33]): 1
2 | O=C(CN1CCC(C(=O)Nc2ccc(Br)cc2)CC1)Nc1ccc2c(c1)NC(=O)C1(CCNC1=O)C2 (racemic) | 63 | 116 | 16 (≈ 28.9 µM) | 32 (≈ 57.7 µM) | 16 (≈ 28.9 µM) | 8 (≈ 14.4 µM) | 256 | 512 | 128 | 32 (≈ 57.7 µM) | 64 (≈ 115 µM) | 64 (≈ 115 µM) | 32 (≈ 57.7 µM) | 32 (≈ 57.7 µM) | 16 | 32 | 16 | 8 | 4 | 4 | MIC (Aspergillus flavus [34]): 256 µg/mL; MIC (Aspergillus fumigatus [20]): 2 µg/mL; MIC (Cryptococcus neoformans [21]): 2 µg/mL; fractional inhibitory concentration index (FICI) (Aspergillus fumigatus [22]): 1; fractional inhibitory concentration index (FICI) (Candida albicans [23]): 1; fractional inhibitory concentration index (FICI) (Aspergillus flavus [24]): 1.25; fractional inhibitory concentration index (FICI) (Cryptococcus neoformans [25]): 0.75; MIC (Candida albicans [26]): 16 µg/mL; MIC (Aspergillus flavus [27]): 32 µg/mL; MIC (Aspergillus fumigatus [28]): 16 µg/mL; MIC (Cryptococcus neoformans [29]): 8 µg/mL; fractional inhibitory concentration index (FICI) (Candida albicans [30]): 1; fractional inhibitory concentration index (FICI) (Aspergillus flavus [31]): 0.5; fractional inhibitory concentration index (FICI) (Aspergillus fumigatus [32]): 1; fractional inhibitory concentration index (FICI) (Cryptococcus neoformans [33]): 1.5
3 | O=C(CN1CCC(C(=O)Nc2cccc(Br)c2)CC1)Nc1ccc2c(c1)NC(=O)C1(CCNC1=O)C2 (racemic) | 80.6 | 101 | 16 (≈ 28.9 µM) | 32 (≈ 57.7 µM) | 32 (≈ 57.7 µM) | 8 (≈ 14.4 µM) | 128 | 256 | 256 | 32 (≈ 57.7 µM) | 32 (≈ 57.7 µM) | 64 (≈ 115 µM) | 32 (≈ 57.7 µM) | 64 (≈ 115 µM) | 16 | 32 | 32 | 8 | 1 | 1.25 | MIC (Aspergillus flavus [34]): 256 µg/mL; MIC (Aspergillus fumigatus [20]): 1 µg/mL; MIC (Cryptococcus neoformans [21]): 0.75 µg/mL; fractional inhibitory concentration index (FICI) (Aspergillus fumigatus [22]): 0.75; fractional inhibitory concentration index (FICI) (Candida albicans [23]): 1.25; fractional inhibitory concentration index (FICI) (Aspergillus flavus [24]): 0.625; fractional inhibitory concentration index (FICI) (Cryptococcus neoformans [25]): 1.5; MIC (Candida albicans [26]): 16 µg/mL; MIC (Aspergillus flavus [27]): 32 µg/mL; MIC (Aspergillus fumigatus [28]): 32 µg/mL; MIC (Cryptococcus neoformans [29]): 8 µg/mL; fractional inhibitory concentration index (FICI) (Candida albicans [30]): 1.5; fractional inhibitory concentration index (FICI) (Aspergillus flavus [31]): 1.25; fractional inhibitory concentration index (FICI) (Aspergillus fumigatus [32]): 0.75; fractional inhibitory concentration index (FICI) (Cryptococcus neoformans [33]): 1

Source: ChEMBL document CHEMBL6127079, “Design and synthesis of spiro[pyrrolidine-3,3'-quinoline]-2,2'-dione derivatives as novel antifungal agents targeting chitin synthase” (Eur J Med Chem, 2024)
